Test results as given in patent US5428059A, “Benzopyran derivatives and an anti-allergic agent possessing the same as the active ingredient” (Dainippon Ink & Chemicals, Inc., priority 1991, dated 1995).

These compounds were tested on Hartley-type male guinea pigs (assay: Guinea Pig Homogeneous Skin Passive Anaphylaxis Assay (PCA reaction)). Details: Cavia porcellus, 10 mg/kg oral, 48 h after sensitization, read-out: Allergic reaction inhibitory index (%).
Assay type: in vivo, guinea pig (Hartley-type)
Method in brief: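 Male Hartley guinea pigs (250~300 g) given intradermal back injections of 120-fold-diluted anti-OVA serum; 48 h later test substance dosed orally at 10 mg/kg, then challenged i.v. with OVA plus Evans Blue. Dye-spot area (long × short diameter, mm^2) measured at 30 min; inhibition % calculated against solvent control.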
In the case of `CC(=O)Oc1c(OC(=O)c2ccccc2)c(=O)oc2cccc(O)c12` [Compound 180, 3-(benzoyloxy)-4-(acetoxy)-5-hydroxy-2H-1-benzopyran-2-one], the inhibition in vivo at 10 mg/kg was 30%. `CCCCCCCCCCOc1cccc2oc(=O)c(OC/C=C(\C)CCC=C(C)C)c(OC(C)=O)c12` [Compound 239, 3-(geranyloxy)-4-(acetoxy)-5-(decyloxy)-2H-1-benzopyran-2-one] gave an inhibition in vivo at 10 mg/kg of 31%. For `CC(=O)Oc1c(OC/C=C(\C)CCC=C(C)C)c(=O)oc2c(O)cccc12` [Compound 104, 3-(geranyloxy)-4-(acetoxy)-8-hydroxy-2H-1-benzopyran-2-one], the inhibition in vivo at 10 mg/kg was 32%. `CC(C)=CCC/C(C)=C/COc1c(OC(=O)c2ccccc2)c(=O)oc2cccc(O)c12` [Compound 190, 3-(benzoyloxy)-4-(geranyloxy)-5-hydroxy-2H-1-benzopyran-2-one] gave an inhibition in vivo at 10 mg/kg of 31%. Work on `CC(C)=CCC/C(C)=C/COc1cccc2oc(=O)c(O)c(OC/C=C(\C)CCC=C(C)C)c12` [Compound 254, 3-hydroxy-4,5-(digeranyloxy)-2H-1-benzopyran-2-one] yielded an inhibition in vivo at 10 mg/kg of 30%. Compound `CCCCCCCCCCOc1c(O)c(=O)oc2cccc(OC)c12` [Compound 199, 3-hydroxy-4-(decyloxy)-5-(methoxy)-2H-1-benzopyran-2-one] has an inhibition in vivo at 10 mg/kg of 32%. `COc1c(OC(C)=O)c(=O)oc2cc(OC(C)C)ccc12` [Compound 51, 3-(acetoxy)-4-(methoxy)-7-(isopropoxy)-2H-1-benzopyran-2-one] showed an inhibition in vivo at 10 mg/kg of 30%. In the case of `COc1c(OC(C)=O)c2cccc(O)c2oc1=O` [Compound 101, 3-(methoxy)-4-(acetoxy)-8-hydroxy-2H-1-benzopyran-2-one], the inhibition in vivo at 10 mg/kg was 30%. `CCCCCCCCCCOc1c(O)c2ccc(OC(C)C)cc2oc1=O` [Compound 48, 3-(decyloxy)-4-hydroxy-7-(isopropoxy)-2H-1-benzopyran-2-one] was tested, and the inhibition in vivo at 10 mg/kg was 42%. In the case of `COc1c(OC/C=C(\C)CCC=C(C)C)c2c(OC)cccc2oc1=O` [Compound 208, 3,5-(dimethoxy)-4-(geranyloxy)-2H-1-benzopyran-2-one], the inhibition in vivo at 10 mg/kg was 32%. `CCCCCCCCCCOc1cccc2oc(=O)c(OC(C)=O)c(OC(=O)c3ccccc3)c12` [Compound 232, 3-(acetoxy)-4-(benzoyloxy)-5-(decyloxy)-2H-1-benzopyran-2-one] gave an inhibition in vivo at 10 mg/kg of 32%. Work on `COc1c(OC(C)=O)c2cccc(OC/C=C(\C)CCC=C(C)C)c2oc1=O` [Compound 166, 3-(methoxy)-4-(acetoxy)-8-(geranyloxy)-2H-1-benzopyran-2-one] yielded an inhibition in vivo at 10 mg/kg of 30%. With `CC(C)=CCC/C(C)=C/COc1c(OC(C)C)c2ccc(OC(C)C)cc2oc1=O` [Compound 55, 3-(geranyloxy)-4,7-(diisopropoxy)-2H-1-benzopyran-2-one] the inhibition in vivo at 10 mg/kg was 33%. Compound `CCCCCCCCCCOc1ccc2oc(=O)c(OC)c(O)c2c1` [Compound 275, 3-(methoxy)-4-(hydroxy)-6-(decyloxy)-2H-1-benzopyran-2-one] has an inhibition in vivo at 10 mg/kg of 36%. With `CCCCCCCCCCOc1cccc2c(OC(C)=O)c(O)c(=O)oc12` [Compound 145, 3-hydroxy-4-(acetoxy)-8-(decyloxy)-2H-1-benzopyran-2-one] the inhibition in vivo at 10 mg/kg was 32%. `COc1c(OC/C=C(\C)CCC=C(C)C)c2c(OC(C)C)cccc2oc1=O` [Compound 222, 3-(methoxy)-4-(geranyloxy)-5-(isopropoxy)-2H-1-benzopyran-2-one] showed an inhibition in vivo at 10 mg/kg of 32%. Work on `COc1c(O)c2cc(O)ccc2oc1=O` [Compound 265, 3-(methoxy)-4,6-(dihydroxy)-2H-1-benzopyran-2-one] yielded an inhibition in vivo at 10 mg/kg of 37%. Compound `COc1cccc2oc(=O)c(OC/C=C(\C)CCC=C(C)C)c(OC/C=C(\C)CCC=C(C)C)c12` [Compound 209, 3,4-(digeranyloxy)-5-(methoxy)-2H-1-benzopyran-2-one] has an inhibition in vivo at 10 mg/kg of 33%. With `CCCCCCCCCCOc1ccc2c(O)c(OC)c(=O)oc2c1` [Compound 62, 3-(methoxy)-4-hydroxy-7-(decyloxy)-2H-1-benzopyran-2-one] the inhibition in vivo at 10 mg/kg was 43%. Work on `CC(=O)Oc1cccc2oc(=O)c(OC(=O)c3ccccc3)c(OC(C)=O)c12` [Compound 181, 3-(benzoyloxy)-4,5-(diacetoxy)-2H-1-benzopyran-2-one] yielded an inhibition in vivo at 10 mg/kg of 33%. Compound `CCCCCCCCCCOc1c(O)c(=O)oc2ccc(O)cc12` [Compound 268, 3,6-(dihydroxy)-4-(decyloxy)-2H-1-benzopyran-2-one] has an inhibition in vivo at 10 mg/kg of 33%. `COc1c(OC/C=C(\C)CCC=C(C)C)c(=O)oc2c(O)cccc12` [Compound 107, 3-(geranyloxy)-4-(methoxy)-8-hydroxy-2H-1-benzopyran-2-one] showed an inhibition in vivo at 10 mg/kg of 33%. `CCCCCCCCCCOc1ccc2c(OC(C)=O)c(OC(C)=O)c(=O)oc2c1` [Compound 61, 3,4-(diacetoxy)-7-(decyloxy)-2H-1-benzopyran-2-one] gave an inhibition in vivo at 10 mg/kg of 30%. `COc1c(O)c(=O)oc2cc(OC(C)C)ccc12` [Compound 49, 3-hydroxy-4-(methoxy)-7-(isopropoxy)-2H-1-benzopyran-2-one] gave an inhibition in vivo at 10 mg/kg of 36%. With `CC(C)Oc1c(O)c2ccc(O)cc2oc1=O` [Compound 15, 3-(isopropoxy)-4,7-(dihydroxy)-2H-1-benzopyran-2-one] the inhibition in vivo at 10 mg/kg was 41%. For `CCCCCCCCCCOc1c(OC(=O)c2ccccc2)c2c(OC(C)C)cccc2oc1=O` [Compound 218, 3-(decyloxy)-4-(benzoyloxy)-5-(isopropoxy)-2H-1-benzopyran-2-one], the inhibition in vivo at 10 mg/kg was 31%. Compound `CCCCCCCCCCOc1c(OC)c2cccc(OC)c2oc1=O` [Compound 117, 3-(decyloxy)-4,8-(dimethoxy)-2H-1-benzopyran-2-one] has an inhibition in vivo at 10 mg/kg of 32%. With `CCCCCCCCCCOc1cccc2oc(=O)c(O)c(OC/C=C(\C)CCC=C(C)C)c12` [Compound 238, 3-hydroxy-4-(geranyloxy)-5-(decyloxy)-2H-1-benzopyran-2-one] the inhibition in vivo at 10 mg/kg was 33%. For `COc1cccc2oc(=O)c(OC(=O)c3ccccc3)c(O)c12` [Compound 194, 3-(benzoyloxy)-4-hydroxy-5-(methoxy)-2H-1-benzopyran-2-one], the inhibition in vivo at 10 mg/kg was 46%. For `COc1cccc2oc(=O)c(O)c(OC/C=C(\C)CCC=C(C)C)c12` [Compound 204, 3-hydroxy-4-(geranyloxy)-5-(methoxy)-2H-1-benzopyran-2-one], the inhibition in vivo at 10 mg/kg was 30%. In the case of `CC(C)Oc1cccc2oc(=O)c(O)c(O)c12` [Compound 211, 3,4-(dihydroxy)-5-(isopropoxy)-2H-1-benzopyran-2-one], the inhibition in vivo at 10 mg/kg was 52%. `COc1cccc2c(O)c(O)c(=O)oc12` [Compound 111, 3,4-(dihydroxy)-8-(methoxy)-2H-1-benzopyran-2-one] gave an inhibition in vivo at 10 mg/kg of 38%. Compound `CCCCCCCCCCOc1c(O)c2ccc(O)cc2oc1=O` [Compound 16, 3-(decyloxy)-4,7-(dihydroxy)-2H-1-benzopyran-2-one] has an inhibition in vivo at 10 mg/kg of 40%. For `CC(C)=CCC/C(C)=C/COc1cccc2oc(=O)c(OC(=O)c3ccccc3)c(OC(C)C)c12` [Compound 251, 3-(benzoyloxy)-4-(isopropoxy)-5-(geranyloxy)-2H-1-benzopyran-2-one], the inhibition in vivo at 10 mg/kg was 30%. Compound `CCCCCCCCCCOc1c(OC)c(=O)oc2cccc(OC(C)C)c12` [Compound 216, 3-(methoxy)-4-(decyloxy)-5-(isopropoxy)-2H-1-benzopyran-2-one] has an inhibition in vivo at 10 mg/kg of 34%. `CC(C)Oc1ccc2c(O)c(O)c(=O)oc2c1` [Compound 45, 3,4-dihydroxy-7-(isopropoxy)-2H-1-benzopyran-2-one] gave an inhibition in vivo at 10 mg/kg of 58%. Compound `O=C(Oc1c(O)c(=O)oc2cc(O)ccc12)c1ccccc1` [Compound 8, 4-(benzoyloxy)-3,7-(dihydroxy)-2H-1-benzopyran-2-one] has an inhibition in vivo at 10 mg/kg of 40%. `O=C(Oc1c(O)c2c(O)cccc2oc1=O)c1ccccc1` [Compound 176, 3-(benzoyloxy)-4,5-dihydroxy-2H-1-benzopyran-2-one] was tested, and the inhibition in vivo at 10 mg/kg was 34%. In the case of `CC(=O)Oc1c(OC(C)=O)c2cccc(OC(C)=O)c2oc1=O` [Compound 95, 3,4,8-(triacetoxy)-2H-1-benzopyran-2-one], the inhibition in vivo at 10 mg/kg was 30%. `CCCCCCCCCCOc1cccc2c(OC/C=C(\C)CCC=C(C)C)c(OC(C)C)c(=O)oc12` [Compound 156, 3-(isopropoxy)-4-(geranyloxy)-8-(decyloxy)-2H-1-benzopyran-2-one] was tested, and the inhibition in vivo at 10 mg/kg was 32%. In the case of `CC(C)=CCC/C(C)=C/COc1cccc2oc(=O)c(O)c(O)c12` [Compound 245, 3,4-(dihydroxy)-5-(geranyloxy)-2H-1-benzopyran-2-one], the inhibition in vivo at 10 mg/kg was 37%. Compound `COc1c(OC/C=C(\C)CCC=C(C)C)c(=O)oc2cc(O)ccc12` [Compound 24, 3-(geranyloxyl)-4-(methoxy)-7-hydroxy-2H-1-benzopyran-2-one] has an inhibition in vivo at 10 mg/kg of 33%. In the case of `COc1c(OC/C=C(\C)CCC=C(C)C)c(=O)oc2cccc(O)c12` [Compound 191, 3-(geranyloxy)-4-(methoxy)-5-hydroxy-2H-1-benzopyran-2-one], the inhibition in vivo at 10 mg/kg was 30%. `CCCCCCCCCCOc1cccc2oc(=O)c(OC/C=C(\C)CCC=C(C)C)c(OC)c12` [Compound 241, 3-(geranyloxy)-4-(methoxy)-5-(decyloxy)-2H-1-benzopyran-2-one] was tested, and the inhibition in vivo at 10 mg/kg was 32%. `CCCCCCCCCCOc1cccc2c(OC/C=C(\C)CCC=C(C)C)c(OC/C=C(\C)CCC=C(C)C)c(=O)oc12` [Compound 157, 3,4-(digeranyloxy)-8-(decyloxy)-2H-1-benzopyran-2-one] showed an inhibition in vivo at 10 mg/kg of 30%. In the case of `CC(C)=CCC/C(C)=C/COc1c(OC(C)C)c2c(OC(C)C)cccc2oc1=O` [Compound 221, 3-(geranyloxy)-4,5-(diisopropoxy)-2H-1-benzopyran-2-one], the inhibition in vivo at 10 mg/kg was 33%. Compound `COc1c(OC/C=C(\C)CCC=C(C)C)c(=O)oc2c(OC/C=C(\C)CCC=C(C)C)cccc12` [Compound 171, 3,8-(digeranyloxy)-4-(methoxy)-2H-1-benzopyran-2-one] has an inhibition in vivo at 10 mg/kg of 33%.
